Assays:
Assay type in all cases: physicochemical
[1] = Test for resistance to light of the recorded images (carbon arc fade meter, Blue Scale JIS L-0841); conditions: 20 hours carbon arc fade meter; for light fastness (rank) ink jet paper A: ink jet print on ink jet paper A (Color BJ Paper LC 101, Canon); for light fastness (rank) ink jet paper B: ink jet print on ink jet paper B (coated paper STX73 A4, Sharp); for light fastness (rank) plain paper: ink jet print on plain paper (Canon TLB5A4S)
Experimental: (§1) A liquid having the following formulation was prepared and passed through a 0.45 μm membrane filter to obtain an aqueous ink composition for ink jet printers.
(§2) An ink jet recording was conducted on three different papers, i.e. plain papers (Canon printer paper A4 (TLB5A4S)), ink jet papers A (Color BJ Paper LC 101; ex. Canon) and ink jet papers B (coated papers for ink jet printer STX73 A4; ex. Sharp) by means of an ink jet printer (trade name NOVA JET III; ex. ENCAD). The thus-recorded images were tested with respect to the resistances to light and water and a color rendering property.
The recorded images were irradiated with light for 20 hours by means of a carbon arc fade meter (ex. SUGA Shikenkisha). Light fastness was judged according to the Blue Scale for light resistance standard as defined in JIS L-0841.

[2] = Test for resistance to water of the recorded images (immersion in water, visual examination of dropout); parameters: key to water fastness plain paper: ∘: Less amount of the compound was dropped out.; Δ: About half of the compound was dropped out.; X: Large amount of the compound was dropped out; conditions: immersed in water 2 minutes with mild stirring, dried; for water fastness ink jet paper A: ink jet print on ink jet paper A; for water fastness ink jet paper B: ink jet print on ink jet paper B; for water fastness plain paper: ink jet print on plain paper
Experimental: as §1, §2
Test specimen was immersed in water contained in a beaker with mild stirring for 2 minutes and dried. Amount of the compound was observed by the visual examination before and after the immersion, and dropout of the compound was judged.

[3] = Color rendering property (hue change under tungsten light versus standard light source, visual); conditions: hue change under tungsten light compared with standard light source
Experimental: as §1, §2
Discoloration was judged by the visual examination by comparing the hue change under the tungsten light with that under the standard light source.

SMILES | light fastness (rank) ink jet paper A [1] | light fastness (rank) ink jet paper B [1] | light fastness (rank) plain paper [1] | water fastness ink jet paper A [2] | water fastness ink jet paper B [2] | water fastness plain paper [2] | color rendering property [3]
COCCOc1cc(N=Nc2cc(S(=O)(=O)O)cc3cc(S(=O)(=O)O)cc(O)c23)c(NC(C)=O)cc1N=Nc1c(S(=O)(=O)O)cc2ccc(N=Nc3cc(S(=O)(=O)O)c(N)cc3N)cc2c1O [compound 0022] | 5 rank | 5 rank | 5 rank | ◯ | ◯ | Δ˜◯ | ◯
COc1cc(N=Nc2cc(S(=O)(=O)O)cc3cc(S(=O)(=O)O)cc(O)c23)c(C)cc1N=Nc1c(S(=O)(=O)O)cc2ccc(N=Nc3ccc(O)cc3O)cc2c1O [compound 0003] | 3-4 rank | 4-5 rank | 4-5 rank | ◯ | ◯ | Δ | ◯
COc1cc(N=Nc2cc(S(=O)(=O)O)cc3cc(S(=O)(=O)O)cc(O)c23)c(NC(C)=O)cc1N=Nc1c(S(=O)(=O)O)cc2cc(S(=O)(=O)O)c(N=Nc3ccc(O)cc3O)cc2c1O [compound 0232] | 4 rank | 4 rank | 4 rank | ◯ | ◯ | Δ˜◯ | ◯
COc1cc(N=Nc2cc(S(=O)(=O)O)cc3cc(S(=O)(=O)O)cc(O)c23)c(C)cc1N=Nc1c(S(=O)(=O)O)cc2ccc(N=Nc3ccc(N)cc3N)cc2c1O [compound 0001] | 4-5 rank | 5 rank | 5 rank | ◯ | ◯ | Δ˜◯ | ◯
COc1cc(N=Nc2cc(S(=O)(=O)O)cc3cc(S(=O)(=O)O)cc(O)c23)c(NC(C)=O)cc1N=Nc1c(S(=O)(=O)O)cc2ccc(N=Nc3ccc(N)cc3O)cc2c1O [compound 0011] | 4 rank | 4 rank | 4-5 rank | ◯ | ◯ | Δ˜◯ | ◯
COc1cc(N=Nc2cc(S(=O)(=O)O)cc3cc(S(=O)(=O)O)cc(O)c23)c(NC(C)=O)cc1N=Nc1c(S(=O)(=O)O)cc2cc(S(=O)(=O)O)c(N=Nc3ccc(N)cc3O)cc2c1O [compound 0231] | 4 rank | 5 rank | 4-5 rank | ◯ | ◯ | Δ | ◯

Reference: patent publication US6409810B1, “Water-soluble trisazo compounds, aqueous ink composition and colored article” (Nippon Kayaku Kabushiki Kaisha, priority 1997, dated 2002)
